Assay results reported in patent US11447522B2, “Potent soft anti-inflammatory corticosteroid compounds and uses thereof” (Bodor Laboratories, Inc., priority 2017, dated 2022).
Where two headings read alike, the source gives them in different places.

Tests used:
[1] = tested on: TNF-α production of LPS-stimulated whole blood cells; test: Stability: inhibition of TNF-α production with or without preincubation of the compounds in human plasma/serum; type: cell-based; settings: for potency and softness compared with the corresponding compounds 11 and 15: see Table 1
Description: (§1) The in vitro anti-inflammatory effect of ED and its analogs was assessed using LPS-induced TNF α-release under various conditions (diluted or undiluted whole human blood, preincubation with sera) to determine the intrinsic anti-inflammatory activity and systemic biological stability of the various compounds.
(§2) Commercially available human cytokine ELISA sets were used. TNF-α and GM-CSF sets were purchased from BD Pharmingen, San Diego, Calif., USA) and the IL-1β set was obtained from R&D Systems (Minneapolis, Minn., USA). ELISA was performed according to the manufacturer's protocol. Cell-free supernatants were tested in duplicate. Detection limits were 7.8 pg/ml for TNF-α, 4.7 pg/ml for GM-CSF, and 3.9 pg/ml for IL-1β. Results were expressed as the mean percentage of inhibition. IC50 values for test compounds were calculated by linear regression.
Mononuclear cells from peripheral blood of healthy donors were isolated on Ficoll-gradient. One million cells in 0.9 ml of RPMI 1640 medium were distributed into 24-well plates and serial concentrations of the test compounds, made in fresh human serum either instantly or 18 h previously, were added (0.05 ml) together with the lipopolysaccharide (0.05 ml; 1 μg/ml final concentration). Preincubation of the compounds with serum was carried out at 37° C. Processing of the cultures was done as described above.

[2] = tested on: TNF α-production of LPS-stimulated blood cells; test: TNF-α production of lipopolysaccharide-stimulated human blood; type: cell-based
Description: as §1, §2
Peripheral blood from healthy donors was collected aseptically into sterile heparinized (Vacutainer™) tubes. Whole blood samples from each individual were parallel used both undiluted and after 5-fold dilution with RPMI-1640 medium in every experiment. Blood samples were distributed into 24-well plates and incubated with serial concentrations of the test compounds and 1 μg/ml lipopolysaccharide for 24 h at 37° C. in a CO2 thermostat. Controls were treated with lipopolysaccharide and the vehicle (PBS or 0.01% dimethyl sulfoxide in PBS). After incubation, cell-free supernatants were separated by centrifugation (1000 g for 10 minutes) and stored at −20° C. until determination of the amount of TNF-α. Test compounds were examined in blood samples from five different individuals. Two parallel cultures per treatments were run.

[3] = tested on: mitogen-induced proliferation of PBMC; test: Proliferation of lectin-stimulated peripheral mononuclear cells; type: cell-based, human; settings: read-out: Prolif.**: Inhibition of mitogen-induced proliferation of PBMC
Description: Mononuclear cells from heparinized peripheral blood of healthy donors were isolated on suitable gradient (Optiprep solution, 1.077 g/ml). Serial dilutions of the test compounds (ranging from 2×10^−6 to 2×10^−8 M) were made in 100 μl of medium per well of sterile round-bottomed 96-well microtiter plate. Control wells contained culture medium only. 100 μl of cell suspension (10^6 cells/ml), containing concanavalin A (2 μg/ml) was added to each well. […] All cultures were done in triplicate. Microtiter plates were incubated for 72 h at 37° C., in 5% CO2 containing humidified atmosphere. For the last 18 h of incubation, [^3H]thymidine was added to the cells cultures, at 0.1 μCi/well final concentration. At the end of the incubation, cells were harvested to glass microfiber filter (Whatman G/F) and associated radioactivity was determined by liquid scintillation.

[4] = tested on: ovalbumin sensitized and challenged Brown Norway rats; test: Airway changes of ovalbumin sensitized and challenged Brown Norway rats, intratracheal administration; type: in vivo; settings: for AHR (airways hyperreactivity) ED50: relative response to maximal acetylcholine dose
[5] = Stability in the presence of human plasma (HPLC/MS/MS); type: in vitro ADME; settings: 37° C.
Description: Etiprednol dicloacetate (BNP-166) was added to freshly prepared human plasma of healthy donors at a concentration of 5 ng/ml, and were incubated at 37° C. for different intervals. After incubation the amount of the original compound (ethyl-17α-dichloroacetoxy-11β-hydroxyandostra-1,4-diene-3-one-17β-carboxylate), and one of its main metabolite, M-OH (17α,11β-dihydroxyandostra-1,4-diene-3-one-17β-carboxylate) were determined using an HPLC/MS/MS method. In brief: Fluocinolone acetonide served as internal standard (20 ng/ml), samples were extracted with a liquid-liquid extraction on Extrelut® columns, and were separated on a Purospher STAR 30×2 mm (3 μm) reversed phase column at a flow rate of 0.3 ml/min, using a linear gradient with a mobile phase system containing acetonitrile, water and acetic acid. Determination were performed on a triple quadrupole mass spectrometer (Perkin-Elmer SCIEX API 2000) supplied with an electrospray interface operated in the positive ionization mode. The multiple ion monitoring, parent→daughter ion transitions of 485.2→265.2, 375.2→265.2 and 495.2→337.2 were used for the quantification of etiprednol dicloacetate, its M-OH metabolite and for the internal standard respectively. Results are expressed as peak areas normalized to the internal control. Stability of the selected ED analogs (10, 11, 13, 17, 21, 25) were determined as described above for ED (3).

[6] = non-preincubated in human plasma, read-out: Stability*** c: Inhibition of TNF-α production of LPS-stimulated whole blood cells
[7] = preincubated overnight in human plasma, read-out: Stability*** d: Inhibition of TNF-α production of LPS-stimulated whole blood cells
[8] = diluted blood 1:5, read-out: TNFα* a: Inhibition of TNF α-production of LPS-stimulated blood cells
[9] = undiluted blood, read-out: TNFα* b: Inhibition of TNF α-production of LPS-stimulated blood cells
[10] = intratracheal, 2 hours prior challenge
[11] = intratracheal, 2 hours prior challenge, minimal statistically significantly effective dose

Row | SMILES | IC50 [1, 6] | IC50 [1, 7] | IC50 [2, 8] | IC50 [2, 9] | IC50 [3] | further results
1 | COC(=O)[C@@]1(OC(=O)C(Cl)Cl)[C@@H](C)C[C@H]2[C@@H]3CCC4=CC(=O)C=C[C@]4(C)[C@@]3(F)[C@@H](O)C[C@@]21C [Compound 10, Methyl 17α-dichloroacetoxy-9α-fluoro-16β-methyl-11β-hydroxy-3-oxoandrosta-1,4-diene-17β-carboxylate] | 1.7 nM | 10.2 nM | 4 ± 3 nM | 20 ± 10 nM | < 0.01 nM | –
2 | CCOC(=O)[C@@]1(OC(=O)C(Cl)Cl)[C@@H](C)C[C@H]2[C@@H]3CCC4=CC(=O)C=C[C@]4(C)[C@@]3(F)[C@@H](O)C[C@@]21C [Compound 11, Ethyl 17α-dichloroacetoxy-9α-fluoro-16β-methyl-11β-hydroxy-3-oxoandrosta-1,4-diene-17β-carboxylate] | 16 nM | 18 nM | 1.7 ± 2 nM | 7.1 ± 4 nM | 0.012 nM | overall in vivo activity compared with the parent steroid ([4]; Table 2 parameters): does not represent significant improvement over ED, except in mucus production; Edema formation ED50 [4, 10]: 93 µg/kg; Eosinophilia BALF ED50 [4, 10]: >100 µg/kg; Eosinophilia Peribronchial ED50 [4, 10]: 10.3 µg/kg; Mucus production ED50 [4, 10]: <1 µg/kg; Mucus production, second line (dose type not given) [4, 10]: <1 µg/kg; AHR (airways hyperreactivity) MSED [4, 11]: 20.0 µg/kg; Edema formation MSED [4, 11]: 0.5 µg/kg; Eosinophilia Peribronchial MSED [4, 11]: 12.0 µg/kg; AHR (airways hyperreactivity) ED50 [4, 10]: 19.4 µg/kg
3 | C[C@H]1C[C@H]2[C@@H]3CCC4=CC(=O)C=C[C@]4(C)[C@@]3(F)[C@@H](O)C[C@]2(C)[C@@]1(OC(=O)C(Cl)Cl)C(=O)OCCl [Compound 12, Chloromethyl 17α-dichloroacetoxy-9α-fluoro-16β-methyl-11β-hydroxy-3-oxoandrosta-1,4-diene-17β-carboxylate] | – | – | 20 ± 8 nM | 35 ± 12 nM | 0.05 ± 0.12 nM | –
4 | C[C@H]1C[C@H]2[C@@H]3CCC4=CC(=O)C=C[C@]4(C)[C@@]3(F)[C@@H](O)C[C@]2(C)[C@@]1(OC(=O)C(Cl)Cl)C(=O)OCCO [Compound 13, 2-Hydroxyethyl 17α-dichloroacetoxy-9α-fluoro-16β-methyl-11β-hydroxy-3-oxoandrosta-1,4-diene-17β-carboxylate] | 4.5 nM | 53.5 nM | 4.6 ± 6 nM | 5.8 ± 5 nM | – | potency and softness compared with the corresponding compounds 11 and 15 [1]: more potent but softer; stability in the presence of human plasma [5]: particularly stable
5 | COC(=O)C1(OC(=O)C(Cl)Cl)C(C)CC2C3CC(F)C4=CC(=O)C=CC4(C)C3(F)C(O)CC21C (stereo not drawn) [Compound 14, Methyl 6α,9α-difluoro-17α-dichloroacetoxy-16β-methyl-11β-hydroxy-3-oxoandrosta-1,4-diene-17β-carboxylate] | – | – | 0.8 ± 0.6 nM | 1.7 ± 0.9 nM | < 0.01 nM | –
6 | CCOC(=O)[C@@]1(OC(=O)C(Cl)Cl)[C@@H](C)C[C@H]2[C@@H]3C[C@H](F)C4=CC(=O)C=C[C@]4(C)[C@@]3(F)[C@@H](O)C[C@@]21C [Compound 15, Ethyl 6α,9α-difluoro-17α-dichloroacetoxy-16β-methyl-11β-hydroxy-3-oxoandrosta-1,4-diene-17β-carboxylate] | – | – | 2 nM | 14 nM | < 0.01 nM | –
7 | C[C@H]1C[C@H]2[C@@H]3C[C@H](F)C4=CC(=O)C=C[C@]4(C)[C@@]3(F)[C@@H](O)C[C@]2(C)[C@@]1(OC(=O)C(Cl)Cl)C(=O)OCCl [Compound 16, Chloromethyl 6α,9α-difluoro-17α-dichloroacetoxy-16β-methyl-11β-hydroxy-3-oxoandrosta-1,4-diene-17β-carboxylate] | – | – | 0.4 nM | 5.1 ± 1.7 nM | 26 ± 26 nM | –
8 | C[C@H]1C[C@H]2[C@@H]3C[C@H](F)C4=CC(=O)C=C[C@]4(C)[C@@]3(F)[C@@H](O)C[C@]2(C)[C@@]1(OC(=O)C(Cl)Cl)C(=O)OCCO [Compound 17, 2-Hydroxyethyl 6α,9α-difluoro-17α-dichloroacetoxy-16β-methyl-11β-hydroxy-3-oxoandrosta-1,4-diene-17β-carboxylate] | 1.9 nM | 19.2 nM | < 1 nM | 3.7 ± 2.6 nM | 0.13 ± 0.02 nM | potency and softness compared with the corresponding compounds 11 and 15 [1]: more potent but softer; stability in the presence of human plasma [5]: particularly stable
9 | C[C@@H]1C[C@H]2[C@@H]3C[C@H](F)C4=CC(=O)C=C[C@]4(C)[C@@]3(F)[C@@H](O)C[C@]2(C)[C@@]1(OC(=O)C(Cl)Cl)C(=O)OCF [Compound 21, Fluoromethyl 17α-dichloroacetoxy-6α,9α-difluoro-11β-hydroxy-16α-methyl-3-oxoandrosta-1,4-diene-17β-carboxylate] | 1.4 nM | 25 nM | 1.4 nM | 4.5 nM | 9 nM | stability in the presence of human plasma [5]: particularly stable
10 | C[C@@H]1C[C@H]2[C@@H]3C[C@H](F)C4=CC(=O)C=C[C@]4(C)[C@@]3(F)[C@@H](O)C[C@]2(C)[C@@]1(OC(=O)C(Cl)Cl)C(=O)OCCl [Compound 22, Chloromethyl 17α-dichloroacetoxy-6α,9α-difluoro-11β-hydroxy-16α-methyl-3-oxoandrosta-1,4-diene-17β-carboxylate] | – | – | 4 nM | 4 nM | 0.02 nM | –
11 | CC1CC2C3CC(F)C4=CC(=O)C=CC4(C)C3(F)C(O)CC2(C)C1(OC(=O)C(Cl)Cl)C(=O)SCCl (stereo not drawn) [Compound 26, S-Chloromethyl 17α-dichloroacetoxy-6α,9α-difluoro-11β-hydroxy-16α-methyl-3-oxoandrosta-1,4-diene-17β-carbothioate] | – | – | 6 nM | 12 nM | 3 nM | –
12 | CCC(=O)O[C@]1(C(=O)SCF)[C@H](C)C[C@H]2[C@@H]3C[C@H](F)C4=CC(=O)C=C[C@]4(C)[C@@]3(F)[C@@H](O)C[C@@]21C [FLU, fluticasone propionate] | – | – | – | – | – | Edema formation ED50 [4, 10]: 2.8 µg/kg; Eosinophilia BALF ED50 [4, 10]: >100 µg/kg; Eosinophilia Peribronchial ED50 [4, 10]: 10.5 µg/kg; Eosinophilia Perivascular ED50 [4, 10]: 45.0 µg/kg; Mucus production ED50 [4, 10]: <1.0 µg/kg; Mucus production, second line (dose type not given) [4, 10]: 1.0 µg/kg; BALF protein ED50 ([4]; intratracheal, 2 hours prior challenge, broncho-alveolar lavage fluid): 11.2 µg/kg; AHR (airways hyperreactivity) MSED [4, 11]: 0.1 µg/kg; BALF protein MSED [4, 11]: 10.0 µg/kg; Edema formation MSED [4, 11]: 1.0 µg/kg; Eosinophilia BALF MSED [4, 11]: 10.0 µg/kg; Eosinophilia Peribronchial MSED [4, 11]: 1.0 µg/kg; Eosinophilia Perivascular MSED [4, 11]: 10.0 µg/kg; AHR (airways hyperreactivity) ED50 [4, 10]: 0.14 µg/kg
